Assay results from patent US20100285959A1, “HERBICIDAL MIXTURES” (priority 2006, published 2010).

Tests used:
[1] = system: wild buckwheat (POLCO); assay: Test 4 field trial, postemergence; type: in vivo, Polygonum convolvulus; details: clodinafop 56 or fenoxaprop 90 g a.i./ha alone
Procedure: (§1) A field trial was conducted to evaluate the effects of mixtures of Compound 2 with commercial herbicides on spring wheat (TRZAS, Triticum aestivum L.) and several weed species. Wheat seeds (cv. ‘AC Intrepid’) were planted in late spring season, 3.8 cm deep in a loam soil having 2.7% organic matter and a pH of 7. Plots were 6 m long by 2.5 m wide. The field was managed using no-till practices. The plots were arranged in a randomized complete block design with each treatment being replicated four times. Treatments were applied postemergence 25 days after planting using a backpack sprayer delivering a spray volume of 55 L/ha using a pressure of 276 kPa. […] Compound 2 and clodinafop treatments, alone and in combination, also included a surfactant. Weed species present in the experimental plots in sufficient quantity to be evaluated included wild oat (AVEFA, Avena fatua L.), common lambsquarters (CHEAL, Chenopodium album L.), kochia (KCHSC, Kochia scoparia (L.) Schrad.), wild buckwheat (POLCO, Polygonum convolvulus L.), Russian thistle (SASKR, Salsola kali L. ssp. ruthenica (Iljin) Soo), and field pennycress (THLAR, Thlaspi arvense L.). […] Common lambsquarters was evaluated only at 14 days after application. […] Results are the means of the four replicates.

[2] = system: spring wheat (TRZAS); assay: Test 4 field trial, postemergence; details: clodinafop 56 or fenoxaprop 90 g a.i./ha alone
Procedure: as §1

[3] = system: field pennycress (THLAR); assay: Test 4 field trial, postemergence; type: in vivo, Thlaspi arvense; set-up: scale not given here; details: clodinafop 56 or fenoxaprop 90 g a.i./ha alone
Procedure: as §1

[4] = system: Russian thistle (SASKR); assay: Test 4 field trial, postemergence; type: in vivo, Salsola kali; set-up: scale not given here; details: clodinafop 56 or fenoxaprop 90 g a.i./ha alone
Procedure: as §1

[5] = system: wild oat (AVEFA); assay: Test 4 field trial, postemergence; type: in vivo, Avena fatua; set-up: scale not given here; details: clodinafop 56 or fenoxaprop 90 g a.i./ha alone
Procedure: as §1

[6] = system: common lambsquarters (CHEAL); assay: Test 4 field trial, postemergence; type: in vivo, Chenopodium album; details: clodinafop 56 or fenoxaprop 90 g a.i./ha alone
[7] = system: dry-seeded rice (ORYSA); assay: Test 28 greenhouse, postemergence; type: in vivo, Oryza sativa; details: 26 DAA
Procedure: (§2) A greenhouse test was conducted to evaluate the effects on the plant species corn (ZEAMD, Zea mays ssp. indentata), sorghum (SORVU, Sorghum vulgare L.), dry-seeded rice (ORYSA, Oryza sativa L.), wheat (TRZAW, Triticum aestivum L.), ivyleaf morningglory (IPOHE, Ipomoea hederacea (L.) JACQ.), and barnyardgrass (ECHCG, Echinochloa crus-galli (L.) P. BEAUV.), of mixtures of Compound 2 with isoxadifen-ethyl. Corn, sorghum, rice, wheat, ivyleaf morningglory and barnyardgrass seeds were planted in RediEarth, a commercial potting medium. […] Corn plants were treated postemergence at the V2 growth stage, and sorghum, rice, wheat, ivyleaf morningglory, and barnyardgrass plants were treated postemergence at the 3-leaf stage. […] Each treatment was replicated three times. […] Plants were watered as needed.

[8] = system: ivyleaf morningglory (IPOHE); assay: Test 28 greenhouse, postemergence; type: in vivo, Ipomoea hederacea; details: 26 DAA
Procedure: as §2

[9] = system: smallflower umbrella sedge (CYPDI); assay: Test 32 greenhouse, simulated flooded rice culture; type: in vivo, Cyperus difformis; details: postemergence to flood, 21 DAA
Procedure: (§3) A greenhouse trial was conducted to evaluate the effects of Compound 1 and isoxadifen-ethyl at different ratios in simulated flooded rice culture. Plastic pots (11-cm diameter) were partially filled with non-sterilized Tama silt loam soil containing a 15:57:28 ratio of sand, silt and clay and 2.9% organic matter. Seeds of Heteranthera limosa (ducksalad; HETLI), Cyperus difformis (smallflower umbrella sedge; CYPDI), one stand of Echinochloa crus-galli (barnyardgrass; ECHCG), and one stand of four rice seedlings (Oryza sativa cv. ‘M202’; ORYSA) were planted into a single 11-cm diameter pot for each rate and mixture of rates. To obtain this planting, C. difformis and H. limosa seeds were planted separately on the surface soil layer at particular locations within each pot. Water levels were brought to a puddled condition above the soil surface directly after planting. E. crus-galli and rice seeds were planted in cavity trays in the silt loam soil and transplanted at the 1.5 and 2.0 leaf stage, respectively. E. crus-galli and rice plants were transplanted to about 2-cm depth by transferring plugs from the cavity trays. Plantings were sequential so that these plant species all reached the 2.0- to 2.5-leaf stage in the 11-cm diameter pot at time of treatment. Plantings were established and maintained in a greenhouse with day and night temperatures of about 29.5 and 26.7° C. respectively; supplemental balanced lighting was provided to maintain a 16-hour photoperiod. Pots were fertilized periodically with a 200 ppm solution of commercial Scotts Peters® Professional® General Purpose 20-20-20 Water Soluble Fertilizer, amended to 10 ppm with a commercial iron-chelate micronutrient fertilizer. The solution was supplied at time of watering via a liquid fertilizer injector.
(§4) At treatment time, test pots were flooded to 3 cm above the soil surface and maintained at that water depth for the duration of the test. Chemical treatments were formulated in acetone and applied directly to the paddy water (i.e., postemergence to flood). Make-up volumes of acetone were added to ensure that all pots were treated with a consistent volume. Test pots were maintained in the greenhouse. A randomized complete block design was employed. Five replicates of each treatment, alone and in mixture, were used. Each species was visually evaluated for treatment effects by comparing those treated to untreated controls and rated for plant response after 21 days.

[10] = system: rice (ORYSA); assay: Test 32 greenhouse, simulated flooded rice culture; type: in vivo, Oryza sativa; details: postemergence to flood, 21 DAA
Procedure: as §3, §4

[11] = system: corn (ZEAMD); assay: Test 28 greenhouse, post- and preemergence; type: in vivo, Zea mays ssp. indentata; details: 26 DAA
Procedure: as §2

[12] = system: barnyardgrass (ECHCG); assay: Test 32 greenhouse, simulated flooded rice culture; type: in vivo, Echinochloa crus-galli; set-up: scale not given here; details: postemergence to flood, 21 DAA
Procedure: as §3, §4

[13] = system: wheat (TRZAW); assay: Test 28 greenhouse, post- and preemergence; type: in vivo, Triticum aestivum; details: 26 DAA
Procedure: as §2

[14] = system: ducksalad (HETLI); assay: Test 32 greenhouse, simulated flooded rice culture; type: in vivo, Heteranthera limosa; set-up: scale not given here; details: postemergence to flood, 21 DAA
Procedure: as §3, §4

[15] = system: barnyardgrass (ECHCG); assay: Test 28 greenhouse, postemergence; type: in vivo, Echinochloa crus-galli; details: 26 DAA
Procedure: as §2

[16] = system: sorghum (SORVU); assay: Test 28 greenhouse, postemergence; type: in vivo, Sorghum vulgare; details: 26 DAA
Procedure: as §2

[17] = Isoxadifen-ethyl 1024 g a.i./ha
[18] = Isoxadifen-ethyl 31.25 g a.i./ha
[19] = Isoxadifen-ethyl 62.5 g a.i./ha
[20] = Isoxadifen-ethyl 1000 g a.i./ha
[21] = Isoxadifen-ethyl 1500 g a.i./ha
[22] = postemergence, Isoxadifen-ethyl 64 g a.i./ha
[23] = postemergence, Isoxadifen-ethyl 128 g a.i./ha
[24] = postemergence, Isoxadifen-ethyl 256 g a.i./ha
[25] = postemergence, Isoxadifen-ethyl 512 g a.i./ha
[26] = postemergence, Isoxadifen-ethyl 1024 g a.i./ha
[27] = preemergence, Isoxadifen-ethyl 64 g a.i./ha
[28] = preemergence, Isoxadifen-ethyl 128 g a.i./ha
[29] = preemergence, Isoxadifen-ethyl 256 g a.i./ha
[30] = preemergence, Isoxadifen-ethyl 512 g a.i./ha
[31] = preemergence, Isoxadifen-ethyl 1024 g a.i./ha

## CC(Oc1ccc(Oc2nc3ccc(Cl)cc3o2)cc1)C(=O)O (stereo not shown) [Fenoxaprop]
[1]; 14 DAA
  POLCO Obs: 0
[1]; 35 DAA
  POLCO Obs: 0
[2]; 14 DAA
  TRZAS Obs: 0
[2]; 35 DAA
  TRZAS Obs: 0
[2]; 55 DAA
  TRZAS Obs: 0
[3]; 14 DAA
  THLAR Obs: 0
[3]; 35 DAA
  THLAR Obs: 0
[4]; 14 DAA
  SASKR Obs: 0
[4]; 35 DAA
  SASKR Obs: 0
[5]; 14 DAA
  AVEFA Obs: 96
[5]; 35 DAA
  AVEFA Obs: 96
[5]; 55 DAA
  AVEFA Obs: 98
[6]; 14 DAA
  CHEAL Obs: 0
[6]; 35 DAA
  CHEAL Obs: 0

## CCOC(=O)C1=NOC(c2ccccc2)(c2ccccc2)C1 [Isoxadifen-ethyl]
[7]; Isoxadifen-ethyl 64 g a.i./ha
  ORYSA Obs: 0
[7]; Isoxadifen-ethyl 128 g a.i./ha
  ORYSA Obs: 0
[7]; Isoxadifen-ethyl 256 g a.i./ha
  ORYSA Obs: 0
[7]; Isoxadifen-ethyl 512 g a.i./ha
  ORYSA Obs: 0
[7]; [17]
  ORYSA Obs: 0
[8]; Isoxadifen-ethyl 64 g a.i./ha
  IPOHE Obs: 0
[8]; Isoxadifen-ethyl 128 g a.i./ha
  IPOHE Obs: 0
[8]; Isoxadifen-ethyl 256 g a.i./ha
  IPOHE Obs: 0
[8]; Isoxadifen-ethyl 512 g a.i./ha
  IPOHE Obs: 0
[8]; [17]
  IPOHE Obs: 0
[9]; [18]
  CYPDI Obs: 28
[9]; [19]
  CYPDI Obs: 24
[9]; Isoxadifen-ethyl 125 g a.i./ha
  CYPDI Obs: 84
[9]; Isoxadifen-ethyl 250 g a.i./ha
  CYPDI Obs: 59
[9]; Isoxadifen-ethyl 500 g a.i./ha
  CYPDI Obs: 49
[9]; [20]
  CYPDI Obs: 53
[9]; [21]
  CYPDI Obs: 59
[10]; [18]
  ORYSA Obs: 2%
[10]; [19]
  ORYSA Obs: 5%
[10]; Isoxadifen-ethyl 125 g a.i./ha
  ORYSA Obs: 11%
[10]; Isoxadifen-ethyl 250 g a.i./ha
  ORYSA Obs: 7%
[10]; Isoxadifen-ethyl 500 g a.i./ha
  ORYSA Obs: 5%
[10]; [20]
  ORYSA Obs: 5%
[10]; [21]
  ORYSA Obs: 10%
[11]; [22]
  ZEAMD Obs: 0
[11]; [23]
  ZEAMD Obs: 0
[11]; [24]
  ZEAMD Obs: 0
[11]; [25]
  ZEAMD Obs: 0
[11]; [26]
  ZEAMD Obs: 0
[11]; [27]
  ZEAMD Obs: 0
[11]; [28]
  ZEAMD Obs: 0
[11]; [29]
  ZEAMD Obs: 0
[11]; [30]
  ZEAMD Obs: 0
[11]; [31]
  ZEAMD Obs: 0
[12]; [18]
  ECHCG Obs: 4
[12]; [19]
  ECHCG Obs: 9
[12]; Isoxadifen-ethyl 125 g a.i./ha
  ECHCG Obs: 15
[12]; Isoxadifen-ethyl 250 g a.i./ha
  ECHCG Obs: 10
[12]; Isoxadifen-ethyl 500 g a.i./ha
  ECHCG Obs: 5
[12]; [20]
  ECHCG Obs: 8
[12]; [21]
  ECHCG Obs: 9
[13]; [22]
  TRZAW Obs: 0%
[13]; [23]
  TRZAW Obs: 0%
[13]; [24]
  TRZAW Obs: 0%
[13]; [25]
  TRZAW Obs: 0%
[13]; [26]
  TRZAW Obs: 0%
[13]; [27]
  TRZAW Obs: 0%
[13]; [28]
  TRZAW Obs: 0%
[13]; [29]
  TRZAW Obs: 0%
[13]; [30]
  TRZAW Obs: 0%
[13]; [31]
  TRZAW Obs: 0%
[14]; [18]
  HETLI Obs: 10
[14]; [19]
  HETLI Obs: 29
[14]; Isoxadifen-ethyl 125 g a.i./ha
  HETLI Obs: 35
[14]; Isoxadifen-ethyl 250 g a.i./ha
  HETLI Obs: 19
[14]; Isoxadifen-ethyl 500 g a.i./ha
  HETLI Obs: 23
[14]; [20]
  HETLI Obs: 25
[14]; [21]
  HETLI Obs: 36
[15]; Isoxadifen-ethyl 64 g a.i./ha
  ECHCG Obs: 0
[15]; Isoxadifen-ethyl 128 g a.i./ha
  ECHCG Obs: 0
[15]; Isoxadifen-ethyl 256 g a.i./ha
  ECHCG Obs: 0
[15]; Isoxadifen-ethyl 512 g a.i./ha
  ECHCG Obs: 0
[15]; [17]
  ECHCG Obs: 0
[16]; Isoxadifen-ethyl 64 g a.i./ha
  SORVU Obs: 0%
[16]; Isoxadifen-ethyl 128 g a.i./ha
  SORVU Obs: 0%
[16]; Isoxadifen-ethyl 256 g a.i./ha
  SORVU Obs: 0%
[16]; Isoxadifen-ethyl 512 g a.i./ha
  SORVU Obs: 0%
[16]; [17]
  SORVU Obs: 0%
